# Experimental data from patent US10633348B2, “Methods to treat lymphoplasmacytic lymphoma” (Dana-Farber Cancer Institute, Inc., priority 2013, dated 2020).
# pEC50: −log10 of the molar value.
# Tests used:
# Format in all cases: cell-based
# [1] = test system: LYN
# [2] = test system: OCI-Ly19; assay: CellTiter-Glo cell viability assay; conditions: Homo sapiens, OCI-LY19, 72 h
# Protocol: (§1) CellTiter-Glo® Luminescent cell viability assay (Promega) was used to assess cell survival following treatment with the compounds described. Cells were seeded into 384 well plates with the EL406 Combination Washer Dispenser (BioTek Instruments, Inc.) and the compounds were injected into the cells culture media with the JANUS Automated Workstation (PerkinElmer Inc.). Cells were treated with a series diluted inhibitors (20˜0.04 μM) for 72 hours at 37° C. Luminescent measurement is performed using the 2104 Envision® Multilabel Reader (PerkinElmer Inc.).
# [3] = test system: BCWM.1; assay: CellTiter-Glo cell viability assay; conditions: BCWM1, 72 h
# Protocol: as §1
# [4] = test system: MWCL-1; assay: CellTiter-Glo cell viability assay; conditions: 72 h
# Protocol: as §1
# [5] = test system: Ramos; assay: CellTiter-Glo cell viability assay; conditions: Homo sapiens, 72 h
# Protocol: as §1
# [6] = test system: Hck-pY410; assay: PhosFlow; conditions: BCWM.1, Hck-wt and Hck-mu BCWM.1 cells; 0.5 μM and 0.1 μM
# [7] = test system: FYN; assay: KiNativ kinase profiling in A375 cells
# [8] = test system: ZAK
# [9] = test system: Abl; assay: KiNativ kinase profiling in A375 cells
# [10] = test system: IRE1
# [11] = test system: AurB
# [12] = test system: RSK1 domain2
# [13] = test system: DGKA
# [14] = test system: ATR
# [15] = test system: PIK3CB
# [16] = test system: MER, TYRO3; assay: KiNativ kinase profiling in A375 cells; conditions: Activation Loop, SEQ ID NO 102, 1.0 μM
# [17] = test system: p70S6Kb
# [18] = test system: LOK
# [19] = test system: NDR2
# [20] = test system: OSR1
# [21] = test system: CSK
# [22] = test system: CASK
# [23] = test system: MARK2, MARK3; assay: KiNativ kinase profiling in A375 cells; conditions: Lys2, SEQ ID NO 92, 1.0 μM
# [24] = test system: MET
# [25] = test system: p38b
# [26] = test system: CK1g2
# [27] = test system: FES
# [28] = test system: MAP2K4
# [29] = test system: ACK
# [30] = test system: PKCa, PKCb; assay: KiNativ kinase profiling in A375 cells; conditions: Lys2, SEQ ID NO 153, 1.0 μM
# [31] = test system: MAST3
# [32] = test system: MAP3K3
# [33] = test system: PI4KA, PI4KAP2; assay: KiNativ kinase profiling in A375 cells; conditions: ATP, SEQ ID NO 141, 1.0 μM
# [34] = test system: MARK3, MARK4; assay: KiNativ kinase profiling in A375 cells; conditions: Lys1, SEQ ID NO 94, 1.0 μM
# [35] = test system: CK2a2
# [36] = test system: Wnk1, Wnk2, Wnk3; assay: KiNativ kinase profiling in A375 cells; conditions: Lys2, SEQ ID NO 194, 1.0 μM
# [37] = test system: FGR
# [38] = test system: PKR
# [39] = test system: RSK3 domain1
# [40] = test system: TYK2 domain2
# [41] = test system: MAP3K2, MAP3K3; assay: KiNativ kinase profiling in A375 cells; conditions: Lys2, SEQ ID NO 87, 1.0 μM
# [42] = test system: MAP2K1, MAP2K2; assay: KiNativ kinase profiling in A375 cells; conditions: Lys2, SEQ ID NO 79, 1.0 μM
# [43] = test system: LRRK2
# [44] = test system: PKD2
smiles,measurement,setting,value
"CCN1CCN(Cc2ccc(NC(=O)c3ccc(C)c(Oc4ccnc(Nc5cnn(C)c5)n4)c3)cc2C(F)(F)F)CC1 [(A-14), N-(4-((4-ethylpiperazin-1-yl)methyl)-3-(trifluoromethyl)phenyl)-4-methyl-3-((2-((1-methyl-1H-pyrazol-4-yl)amino)pyrimidin-4-yl)oxy)benzamide]",KiNativ inhibition,[1],85.7%
same,LYN inhibition,[1],85.7%
same,pEC50,[2],6.75
same,pEC50,[3],7.48
same,pEC50,[4],6.89
same,pEC50,[5],5.68
same,Hck phosphorylation,[6],inhibit
same,FYN inhibition,"[7]; 1 μM, A375 cells",88.2%
same,KiNativ inhibition,"[7]; FYN, SRC, YES, Activation Loop, SEQ ID NO 255, 1.0 μM",88.2%
same,KiNativ inhibition,[8],75.8%
same,ZAK inhibition,[8],75.8%
same,Abl inhibition,"[9]; 1 μM, A375 cells",> 90%
same,KiNativ inhibition,"[9]; ABL, ARG, Activation Loop, SEQ ID NO 200, 1.0 μM",98.4%
"CCN1CCN(Cc2ccc(NC(=O)c3ccc(C)c(Oc4cc(N)ncn4)c3)cc2C(F)(F)F)CC1 [(A-4), 3-((6-aminopyrimidin-4-yl)oxy)-N-(4-((4-ethylpiperazin-1-yl)methyl)-3-(trifluoromethyl)phenyl)-4-methylbenzamide]",inhibition of kinase labeling,[1],87.8%
same,inhibition of kinase labeling,[10],−2.2%
same,inhibition of kinase labeling,[11],−51.1%
same,inhibition of kinase labeling,[12],−16.3%
same,inhibition of kinase labeling,[13],−4.8%
same,inhibition of kinase labeling,[14],23.0%
same,inhibition of kinase labeling,[15],27.8%
same,inhibition of kinase labeling,[16],1.6%
same,inhibition of kinase labeling,[17],8.2%
same,pEC50,[2],5.03
same,pEC50,[3],5.52
same,pEC50,[4],5.94
same,pEC50,[5],4.68
same,inhibition of kinase labeling,[18],19.9%
same,inhibition of kinase labeling,[19],−10.9%
same,inhibition of kinase labeling,[20],−11.1%
same,inhibition of kinase labeling,[21],15.3%
same,inhibition of kinase labeling,[22],−28.1%
same,inhibition of kinase labeling,[23],4.6%
same,inhibition of kinase labeling,"[7]; FYN, SRC, YES, Activation Loop, SEQ ID NO 50, 1.0 μM, A375 cells",71.2%
same,inhibition of kinase labeling,[24],−21.0%
same,inhibition of kinase labeling,[25],51.4%
same,inhibition of kinase labeling,[26],−9.1%
same,inhibition of kinase labeling,[27],89.1%
same,inhibition of kinase labeling,[28],−14.1%
same,inhibition of kinase labeling,[29],4.9%
same,inhibition of kinase labeling,[30],2.3%
same,inhibition of kinase labeling,[31],−8.1%
same,inhibition of kinase labeling,[32],3.7%
same,inhibition of kinase labeling,[33],19.3%
same,inhibition of kinase labeling,[34],−16.2%
same,inhibition of kinase labeling,[35],−18.2%
same,inhibition of kinase labeling,[8],75.7%
same,inhibition of kinase labeling,[36],0.2%
same,inhibition of kinase labeling,[37],31.9%
same,inhibition of kinase labeling,[38],−28.4%
same,inhibition of kinase labeling,"[9]; ABL, ARG, Activation Loop, SEQ ID NO 1, 1.0 μM, A375 cells",95.5%
same,inhibition of kinase labeling,[39],−32.6%
same,inhibition of kinase labeling,[40],−18.1%
same,inhibition of kinase labeling,[41],3.2%
same,inhibition of kinase labeling,[42],−16.3%
same,inhibition of kinase labeling,[43],−15.9%
same,inhibition of kinase labeling,[44],−6.9%
